Key:
LNCaP AI-tumors = assay: Therapy of mice bearing LNCaP androgen-independent (AI) tumors; assay type: in vivo
[1] = test system: LAPC9 androgen-independent tumors; assay: Therapy of LAPC9 androgen-independent tumors; assay type: in vivo, mice
Method: (§1) The xenograft models—LAPC9, LAPC4, LNCaP, and VCaP were serially passaged in castrated male NOD/SCID-γ mice (NSG; for LNCaP or NOD/SCID for the other models). The tumors were then harvested for western blot analysis for androgen receptor, androgen receptor-target molecules, cancer stem cell (CSC) and castration resistance (CR) markers. PC3 cells were used as a negative control for androgen receptors. 60 μg of whole cell lysate was loaded in each lane. GADPH was run as the loading controls (top and bottom panels).
To determine the sensitivity of LAPC9 androgen-independent tumors to enzalutamide, therapy experiments were performed as described for the LNCaP primary AI tumors (FIG. 3). […] To determine whether blocking alternate pathways regulated by any of these high expressing proteins, in the Enzalutamide resistant LAPC9 androgen-independent tumors, affects tumor burden, therapy experiments were performed with the Bromodomain and Extra-Terminal protein (a upstream regulator of Myc transcription) inhibitor, JQ1. The integrin α2β1 inhibitor, Compound 15 (142,143) was used as a positive control.

[2] = test system: LAPC4 androgen-independent tumors; assay: Therapy of castrated mice bearing LAPC4 androgen-independent tumors; assay type: in vivo
Method: as §1
To determine whether targeting cyt-AR in these tumors would be effective in reducing tumor burden, castrated mice bearing LAPC4 androgen-independent tumors were administered enzalutamide as indicated (FIG. 5B), and the tumor volume measured.
However, starting from ˜6.5-7 weeks, tumors resumed growth, indicative of resistance to enzalutamide. […] This opens the possibility of employing combinatorial approaches that target androgen receptor (Enzalutamide) together molecules such as Bcl2 (Venetoclax).

[3] = enzalutamide-resistant LAPC4 tumors, western blot
[4] = enzalutamide-resistant LAPC9 AI tumors

CC#C[C@]1(O)CC[C@H]2[C@@H]3CCC4=CC(=O)CCC4=C3[C@@H](c3ccc(N(C)C)cc3)C[C@@]21C [mifepristone]
emergence (incidence) of LNCaP secondary castration resistant prostate cancer (LNCaP AI-tumors; combination with enzalutamide given simultaneously, LNCaP primary AI tumors, P<0.0001, χ2 test for venetoclax combination): without reducing incidence | tumor growth (LNCaP AI-tumors; combination with enzalutamide, LNCaP primary AI tumors): inhibited tumor growth

CNC(=O)c1ccc(N2C(=S)N(c3ccc(C#N)c(C(F)(F)F)c3)C(=O)C2(C)C)cc1F [Enzalutamide, 4-(3-(4-Cyano-3-(trifluoromethyl)phenyl)-5,5-dimethyl-4-oxo-2-thioxoimidazolidin-1-yl)-2-fluoro-N-methylbenzamide]
Bcl-2 expression in response to enzalutamide (LNCaP AI-tumors; among CSC and castration resistance markers, western blot): most prominent upregulation | duration of growth suppression (LNCaP AI-tumors; enzalutamide i.p.): 6.5 weeks | time at which no further response to enzalutamide was observed (emergence of enzalutamide-resistant tumors) (LNCaP AI-tumors; enzalutamide i.p.): about 7 weeks | growth of androgen-independent LNCaP tumors (LNCaP AI-tumors; enzalutamide i.p., vehicle corn oil): suppressed growth | FKBP5 expression (LNCaP AI-tumors; enzalutamide-resistant secondary LNCaP CR tumors, western blot): decreased | PSA expression (LNCaP AI-tumors; enzalutamide-resistant secondary LNCaP CR tumors, western blot and IHC): decreased | FKBP5 levels ([1]; both vehicle and treatment groups, western blot): greatly diminished | levels of integrin α2, c-Myc, N-cadherin, Bcl-2 and p-ERK1/2 ([1]; enzalutamide-treated tumors, western blot): continued to express high levels | response of tumors to enzalutamide (tumor volume) ([1]; primary AI tumors, vehicle corn oil): refractory | expression of androgen receptors and PSA ([1]; western blot and IHC of endpoint tumors): no expression | E-cadherin expression [2, 3]: slight increases | levels of GR, N-cadherin, Bcl-2 and integrin α2 [2, 3]: continued to express high levels | androgen receptor localization ([2]; enzalutamide-resistant tumors, immuno-histochemistry): still largely in the cytoplasm | tumor growth compared to vehicle (corn oil) control ([2]; first 2-3 weeks): grew significantly slower | time from which tumors resumed growth (resistance to enzalutamide) ([2]; mouse, in vivo): 6.5-7 weeks | growth of enzalutamide-resistant cyto-AR+ LAPC4 tumors ([2]; up to 13 weeks, compared with enzalutamide-resistant LNCaP tumors): grew relatively slow

Cc1sc2c(c1C)C(c1ccc(Cl)cc1)=N[C@@H](CC(=O)OC(C)(C)C)c1nnc(C)n1-2 [JQ1, (S)-tert-butyl 2-(4-(4-chlorophenyl)-2,3,9-trimethyl-6H-thieno[3,2-f][1,2,4]triazolo[4,3-a][1,4]diazepin-6-yl)acetate]
tumor growth [1, 4]: significantly inhibited tumor growth | tumor incidence [1, 4]: not tumor incidence

From US11278524B2, “Formulations and methods for the treatment of cancers” (Stemirna (Shanghai) Biotechnology Co. LTED., priority 2018, dated 2022)
